{
  "source": "patent US20260232648A1",
  "about": "“GROWTH HORMONE SECRETION PROMOTER” (SCOHIA PHARMA, INC., priority 2023, published 2026)",
  "key": {"human SSTR 5": {"target": "T1, human SSTR 5 (Homo sapiens, UniProt P35346)", "T1 construct": "expressed in transfected cells; host or cells: CHO-K1 cells (membrane fraction)", "T1 sequence (P35346 whole entry)": "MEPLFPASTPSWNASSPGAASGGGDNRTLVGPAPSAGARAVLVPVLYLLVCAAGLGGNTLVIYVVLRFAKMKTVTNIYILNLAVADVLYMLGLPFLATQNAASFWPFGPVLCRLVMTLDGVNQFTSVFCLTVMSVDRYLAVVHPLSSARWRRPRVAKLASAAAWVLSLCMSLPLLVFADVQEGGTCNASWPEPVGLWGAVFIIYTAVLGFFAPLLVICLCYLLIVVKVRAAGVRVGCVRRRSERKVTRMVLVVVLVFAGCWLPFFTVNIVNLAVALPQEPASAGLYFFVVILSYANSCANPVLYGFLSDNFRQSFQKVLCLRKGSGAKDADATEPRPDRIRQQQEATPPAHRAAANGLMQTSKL", "assay": "Radiolabeled ligand binding assay, human SSTR subtype selectivity", "conditions": "SSTR5 versus SSTR1-4, 1 μM", "procedure": "The selectivity of test compounds for human SSTR subtypes was investigated by radiolabeled ligand binding assay. The membrane fraction of CHO-K1 cells expressing human SSTR1-5 was suspended in am assay buffer (25 mM HEPES (pH 7.4), 5 mM MgCl2, 1 mM CaCl2), 10 μg/mL saponin, 0.5% fatty-acid free BSA) and incubated for 1 hr in the presence of 1 μM test compound 1 and [^125I]Tyr^11-somatostatin 14 (Perkin Elmer). Thereafter, the solution containing the membrane fraction was transferred onto a filter plate, and after washing the filter six times with a wash buffer (25 mM HEPES, 5 mM MgCl2, 1 mM CaCl2), 50 μL of Microscint 20 (Packard) was added, and the radioactivity was measured using a TopCount (Perkin Elmer). The results of competitive activity of the test compound against the binding of the human SSTR subtypes with the labeled ligands are shown in Table 2."}, "growth hormone secretion": {"system": "growth hormone secretion", "assay": "Growth hormone secretion enhancing action by single dose administration in human (Phase 1 study)", "format": "in vivo", "procedure": "(§1) The examples in this section show the measurement results of blood anterior pituitary hormone concentrations using blood samples from a dose escalation study targeting healthy Japanese adult men, from A Randomized, Double-Blind, Placebo-Controlled, Phase 1 Study (jRCT2051210027) targeting healthy adults, which was conducted to examine the safety and tolerability, pharmacokinetics, and pharmacodynamic action of a single administration of test compound 1.\nIn a randomized, double-blind, placebo-controlled, parallel-group comparison, dose-escalation study consisting of 7 cohorts, a single dose of test compound 1 (1, 3, 10, 20, 40, 80 and 160 mg) or placebo was orally administered under fasting conditions. Eight test subjects (6 in the active drug group and 2 in the placebo group) participated in each cohort. The concomitant use of all medications was prohibited from 28 days before hospitalization until discharge. […]\nThe concentration of anterior pituitary hormone was measured using blood from the placebo administration group of all cohorts and the test subjects who received administration of 1 mg or 10 mg of test compound 1, at 0.5 hr before administration and 2, 4, 6, 8, and 10 hr after administration. […]"}, "[1]": {"system": "secretion of other anterior pituitary hormones", "assay": "Blood concentrations of other anterior pituitary hormones after single dose administration in human (Phase 1 study)", "format": "in vivo", "conditions": "healthy Japanese adult men; single oral dose 1 mg or 10 mg", "procedure": "as §1\nIn a randomized, double-blind, placebo-controlled, parallel-group comparison, dose-escalation study consisting of 7 cohorts, a single dose of test compound 1 (1, 3, 10, 20, 40, 80 and 160 mg) or placebo was orally administered under fasting conditions. Eight test subjects (6 in the active drug group and 2 in the placebo group) participated in each cohort. The concomitant use of all medications was prohibited from 28 days before hospitalization until discharge.\nThe test subjects were inspected and examined within 28-2 days and 1 day before administration of test compound 1, and eligibility was confirmed based on the above-mentioned inclusion criteria and exclusion criteria. […] They were fasted for 10 hr before administration and 4 hr after administration until lunch, and took lunch at 13:[…]. The blood was collected 0.5 hr before and 1, 2, 4, 6, 8, and 10 hr after administration of test compound 1.\nThe concentration of anterior pituitary hormone was measured using blood from the placebo administration group of all cohorts and the test subjects who received administration of 1 mg or 10 mg of test compound 1, at 0.5 hr before administration and 2, 4, 6, 8, and 10 hr after administration. The concentrations of growth hormone, follicle-stimulating hormone, luteinizing hormone, thyroid-stimulating hormone, adrenocorticotropic hormone, and prolactin in blood were measured using the Human Growth Hormone Quantikine ELISA Kit (manufactured by R&D Systems), Follicle-Stimulating Hormone (Human) ELISA Kit (manufactured by Cayman Chemical), Luteinizing Hormome (Human) ELISA Kit (manufactured by Cayman Chemical), U-TSH ELISA (manufactured by BIOCHECK), ACTH ELISA Kit (manufactured by MB Biosciences GmbH), and Human Prolactin Quantikine ELISA Kit (manufactured by R&D Systems) according to the protocol described in the package insert of each kit.\nThe time course changes in the blood anterior pituitary hormone concentrations after oral administration of placebo (n=14) or test compound 1 at doses of 1 mg and 10 mg (n=6 for each) are shown in FIG. 1-6."}},
  "data": [
    {"smiles": "CCCc1nc2c(cc1C(=O)O)C(=O)N(C1CCN(Cc3cc(C4CC4)c(-c4ccc(F)cc4)cc3OCC)CC1)CC2", "note": "[test compound 1, 6-(1-((2-cyclopropyl-5-ethoxy-4′-fluorobiphenyl-4-yl)methyl)piperidin-4-yl)-5-oxo-2-propyl-5,6,7,8-tetrahydro-1,6-naphthyridine-3-carboxylic acid]", "values": [
      {"measurement": "selectivity of binding among the human SSTR subtypes", "setting": "human SSTR 5", "result": "selectively binds to SSTR5"},
      {"measurement": "growth hormone secretion (blood growth hormone concentration)", "setting": "growth hormone secretion; healthy Japanese adult men, single oral dose 1 mg or 10 mg, fasting, 2-10 hr after administration", "result": "clearly enhance growth hormone secretion"},
      {"measurement": "increase in blood growth hormone concentration compared with growth hormone replacement therapy", "setting": "growth hormone secretion; human, compared with literature values for patients with pediatric growth hormone deficiency", "result": "corresponds to the blood growth hormone concentration obtained by growth hormone replacement therapy"},
      {"measurement": "secretion of adrenocorticotropic hormone (blood concentration)", "setting": "[1]", "result": "did not substantially affect"},
      {"measurement": "secretion of follicle-stimulating hormone (blood concentration)", "setting": "[1]", "result": "did not substantially affect"},
      {"measurement": "secretion of luteinizing hormone (blood concentration)", "setting": "[1]", "result": "did not substantially affect"},
      {"measurement": "secretion of prolactin (blood concentration)", "setting": "[1]", "result": "did not substantially affect"},
      {"measurement": "secretion of thyroid-stimulating hormone (blood concentration)", "setting": "[1]", "result": "did not substantially affect"}
    ]}
  ]
}
